Patent US20200392181A1, “PEPTIDE COMPOSITIONS AND RELATED METHODS” (Allegro Pharmaceuticals, LLC, priority 2017, published 2020)

Tested on: ischemia-induced retinal neovascularization
Assay: Mouse model of retinopathy of prematurity (ROP), ischemia-induced retinal neovascularization
Format: in vivo, C57BI/6 mice
Settings: addition of three parts taurine to one part of the peptide
Experimental: Each test compound was prepared in sterile water for injection, containing 0.08 mg/100 μL of sodium chloride and 0.005 mg/100 μL of trisodium citrate, the concentration of the peptide was at a concentration of 2.0 mg/100 μL and pH=2.7 and dispensed by sterile filtration into sterile vials. The Taurine test compound was obtained from Sigma Aldrich company, which was >99% pure, and prepared the same way as mentioned previously, having a concentration of 3.0 mg/100 μL. […]
To screen the test compounds for activity against ischemia-induced retinal neovascularization, the well-established model of retinopathy of prematurity (ROP) in mice was used. Litters of C57BI/6 mice were placed in 75% oxygen at postnatal day (P) 7, returned to room air at day (P) 12. The Pups were randomly assigned to treatment groups of 4 to 10 animals per group. The pups were treated as follows: Treatment eyes were treated by intravitreal injection of 1.0 microliters of solution containing 20 micrograms of Test Compound.
On post-natal day 17, 5 days after intravitreal injection, the animals were sacrificed, the retinas were flat mounted and the area of neovascularization in each retina was determined by Fluorescein-dextran image analysis. […]

Glycinyl-Arginyl-Glycinyl-Cysteic(Acid)-Threonyl-Proline [ALG-1001]
neovascularization suppressing activity on addition of taurine: improves the neovascularization suppressing activity
